Patent US20100099756A1, “USES OF INCENSOLE, INCENSOLE ACETATE AND DERIVATIVES THEREOF” (YISSUM RESEARCH DEVELOPMENT COMPANY OF THE HEBREW …, priority 2006, published 2010)

Experiments:
[1] = target: T1, mouse TRPV3-YFP (Mus musculus, UniProt Q8K424); experiment: Calcium imaging of HEK293 cells expressing mouse TRPV3-YFP; type: cell-based
T1 construct: expressed in transfected cells
T1 sequence (Q8K424 1-791): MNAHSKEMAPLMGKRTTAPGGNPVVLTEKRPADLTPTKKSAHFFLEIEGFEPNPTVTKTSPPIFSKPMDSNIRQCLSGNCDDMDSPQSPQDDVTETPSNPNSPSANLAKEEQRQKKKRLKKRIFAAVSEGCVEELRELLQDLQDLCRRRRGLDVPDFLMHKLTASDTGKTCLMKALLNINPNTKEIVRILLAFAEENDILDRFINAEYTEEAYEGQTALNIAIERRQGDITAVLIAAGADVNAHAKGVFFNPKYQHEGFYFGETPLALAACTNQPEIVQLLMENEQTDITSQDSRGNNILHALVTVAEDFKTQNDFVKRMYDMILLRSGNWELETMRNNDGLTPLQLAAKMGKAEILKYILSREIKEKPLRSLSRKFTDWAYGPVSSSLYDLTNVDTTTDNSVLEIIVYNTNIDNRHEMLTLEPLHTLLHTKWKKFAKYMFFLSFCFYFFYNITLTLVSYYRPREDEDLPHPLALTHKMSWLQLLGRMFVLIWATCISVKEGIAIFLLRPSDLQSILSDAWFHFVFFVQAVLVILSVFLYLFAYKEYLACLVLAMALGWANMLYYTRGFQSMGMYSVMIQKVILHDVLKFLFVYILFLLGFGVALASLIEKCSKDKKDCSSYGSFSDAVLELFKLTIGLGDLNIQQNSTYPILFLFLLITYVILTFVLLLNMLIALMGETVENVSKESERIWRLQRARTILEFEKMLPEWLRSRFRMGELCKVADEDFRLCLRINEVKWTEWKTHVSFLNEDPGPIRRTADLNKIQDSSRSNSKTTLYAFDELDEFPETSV
Method: All error bars indicate SEM; p values in all subfigures but c represent analysis with one-way ANOVA Bonferroni's post hoc.
TRPV3-YFP [O'dell, D. K., Rimmerman, N., Pickens, S. R. & Walker J. M. Fatty acyl amides of endogenous tetrahydroisoquinolines are active at the recombinant human TRPV1 receptor. […] Med. Chem. 15, 6164-6169 (2007)], TRPV4 and mock-transfected cell lines were cultured in DMEM 1× with L-glutamine (Mediatech, Inc. Herndon, Va.), containing 1% penicillin-streptomycin (Invitrogen, Carlsbad, Calif.) and 10% foetal bovine serum.
Calcium imaging of HEK 293 cells. TRPV1, TRPV3, and TRPV4 expressing HEK293 cells were plated 24-48 h before imaging in 96 well plates, loaded with 3 μM Fura-2 AM and imaged as previously described [O'dell, D. K., Rimmerman, N., Pickens, S. R. & Walker J. M. Fatty acyl amides of endogenous tetrahydroisoquinolines are active at the recombinant human TRPV1 receptor. […] Med. Chem. 15, 6164-6169 (2007)].
For single cell calcium imaging, HEK293-rat TRPV2 and HEK293-mouse TRPV3-YFP expressing cells were plated on collagen-coated glass cover slips. Cells were loaded for 60 min with 3 μM Fura-2 AM.
Data analysis of calcium imaging data. Analysis of calcium imaging data was done using a non-linear regression curve fit (Graphpad 4 Prism, San Diego, Calif.). t tests and one way ANOVA were calculated using SPSS (Chicago, Ill.). In the keratinocyte experiments, drug-induced response for each cell was taken as the maximal post-drug measurements over time minus the average of the last 5 pre-drug measurements. Averaged drug responses over 30 randomly selected cells per coverslip were analyzed with two-tailed unpaired t tests.

[2] = tested on: IKKα and IKKβ phosphorylation; experiment: TNFα-induced phosphorylation of the IKKs in HeLa cells; type: cell-based; conditions: TNFα 20 ng/ml for 20 minutes, IA 140 μM
Method: (A) IA inhibits IKK phosphorylation. HeLa cells were stimulated with TNFα (20 ng/ml for 20 minutes) in the absence or presence of IA (140 μM) as shown. Whole cell extracts were prepared and analyzed for the phosphoryation of IKKα and IKKβ by Western blotting (WB). (B) HeLa cells were stimulated with TNFα (20 ng/ml for 20 minutes) in the absence or presence of IA (140 μM). Cells were fixed and then stained with rabbit anti-p65 followed by anti-rabbit Rhodamine Red-labeled secondary Ab. and with DAPI for nuclei location (not shown). (B1) HeLa cells, no treatment; (B2) HeLa cells +IA; (B3) HeLa cells +TNF; (B4) HeLa cells +IA+TNF. The cells were examined under an Axioscope Zeiss microscope with a plan-Neofluor * 60 lens. Results of one of three independent experiments are shown.
Western Blot (WB). Following separation by SDS-PAGE, proteins were blotted to a polyvinylidene difluoride (PVDF) membrane (Millipore). The membrane was blocked in 5% (w/v) milk powder and then incubated in TBST containing the primary antibody and 2% (w/v) milk powder. All phospho-specific antibodies were purchased from Cell signaling Inc. αIκBa, αp65 and αCOX2 antibodies from Santa Cruz Inc. (California, USA). […]

[3] = tested on: TRPV4; experiment: Whole-cell voltage-clamp, TRPV4(+) cells; type: cell-based; conditions: IA 200 μM
Method: TRPV3(+) response to IA is shown for reference. *, p<0.001. Error bars represent SEM, n=4-5.
Electrophysiological recording. Currents were recorded using whole-cell voltage-clamp. Pipettes were pulled from microcapillary glass (A-M Systems). A coverslip containing cells was transferred to a 300 μL chamber that was constantly perfused (1-2 mL/min) with external solution. Voltage protocols were generated and data were digitized and recorded using Pulse (HEKA Elektronik) software in conjunction with an Axopatch 200A amplifier (Axon Instruments), and the data analyzed using an in-house Visual Basic (Microsoft) analysis program.
The pipette solution contained (in mM): 121.5 Kgluconate, 10 HEPES, 17 KCl, 9 NaCl, 1 MgCl2, 0.2 EGTA, 2 MgATP, and 0.5 NaATP, pH 7.2. The external solution contained (in mM): 120 NaCl, 5 KCl, 1 MgCl2, 2 CaCl2, 10 Glucose and 20 HEPES, pH 7.4 with NaOH. The measured charge (pC) was defined as the charge elicited between -85 and -45 mV by a ramping voltage stimulus (−85 mV to +35 mV, 0.54 mV/msec; holding potential -55 mV). Currents were sampled at 5 kHz. Experimental and control cells were alternated whenever possible. Control values were obtained from adjacent cells with no detectable YFP fluorescence, presumed to be non-TRPV3-expressing.

[4] = tested on: anxiety-like behavior; experiment: Elevated plus maze; type: in vivo, female Sabra mice; conditions: 50 mg/kg i.p.

SMILES: CC(=O)OC1CC/C(C)=C/CC/C(C)=C/CC2(C(C)C)CCC1(C)O2 (stereo not shown) [IA, incensole acetate]
- calcium influx vs vehicle ([1]; IA 100 μM, 2-APB positive control): significantly increased calcium influx
- calcium influx Hill slope ([1]; calcium in the extracellular media): 2.2
- EC50 ([1]; calcium in the extracellular media, read-out: calcium influx EC50): 16 µM
- calcium increase with calcium removed from the extracellular medium ([1]; no extracellular calcium): significantly reduced
- IKKα/IKKβ phosphorylation [2]: inhibition of IKKα/IKKβ phosphorylation
- current activation in TRPV4(+) cells [3]: does not activate currents
- time in open arms of the elevated plus maze [4]: potent anxiolytic-like effect
